Each compound was assayed against T1, PDE4D3 (Homo sapiens, UniProt Q08499). Conditions: GST-tagged PDE4D3, 200 nM FAM-cAMP, 11-point dose-response; read-out: PD4d3 pEC50 (converted).
T1 construct: GST
Format: biochemical

T1 sequence (Q08499 1-673 isoform Q08499-2): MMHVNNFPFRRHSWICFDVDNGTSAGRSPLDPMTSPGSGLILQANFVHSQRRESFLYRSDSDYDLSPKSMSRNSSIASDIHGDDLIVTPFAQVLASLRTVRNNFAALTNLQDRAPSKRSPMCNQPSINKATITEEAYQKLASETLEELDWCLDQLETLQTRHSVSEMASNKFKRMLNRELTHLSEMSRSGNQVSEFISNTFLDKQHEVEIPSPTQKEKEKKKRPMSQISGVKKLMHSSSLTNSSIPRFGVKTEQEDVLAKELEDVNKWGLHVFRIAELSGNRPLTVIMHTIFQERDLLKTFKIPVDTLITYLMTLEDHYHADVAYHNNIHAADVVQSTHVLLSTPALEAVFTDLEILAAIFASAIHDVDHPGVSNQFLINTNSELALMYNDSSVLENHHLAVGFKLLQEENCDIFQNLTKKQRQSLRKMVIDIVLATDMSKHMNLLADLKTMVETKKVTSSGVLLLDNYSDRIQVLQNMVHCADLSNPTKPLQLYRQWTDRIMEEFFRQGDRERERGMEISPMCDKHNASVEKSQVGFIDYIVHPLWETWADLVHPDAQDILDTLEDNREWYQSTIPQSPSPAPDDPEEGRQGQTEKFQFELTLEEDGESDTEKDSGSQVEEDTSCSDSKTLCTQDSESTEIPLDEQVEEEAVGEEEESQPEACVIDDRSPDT

SMILES	EC50 [nM]
COc1ncc(Cc2cnc(C#N)nc2)nc1-c1cccc(OC(F)F)c1 [Example 107, 5-({6-[3-(Difluoromethoxy)phenyl]-5-methoxypyrazin-2-yl}methyl)pyrimidine-2-carbonitrile]	100 to 1000
CCOc1ncc(Cn2cnc(C(F)(F)F)n2)cc1-c1cccc(OC(F)F)c1 [Example 162, 3-[3-(Difluoromethoxy)phenyl]-2-ethoxy-5-{[3-(trifluoromethyl)-1H-1,2,4-triazol-1-yl]methyl}pyridine]	100 to 1000
Nc1ncn(Cc2cnc(OC(F)F)c(-c3cccc(Cl)c3)c2)n1 [Example 218, 1-{[5-(3-Chlorophenyl)-6-(difluoromethoxy)pyridin-3-yl]methyl}-1H-1,2,4-triazol-3-amine]	100 to 1000
CCOc1ncc(Cn2cc(CO)cn2)cc1-c1cccc(Cl)c1 [Example 273, (1-{[5-(3-Chlorophenyl)-6-ethoxypyridin-3-yl]methyl}-1H-pyrazol-4-yl)methanol]	100 to 1000
CCOc1ncc(Cn2cnc(CO)n2)cc1-c1ccccc1F [Example 277, (1-((6-Ethoxy-5-(2-fluorophenyl)pyridin-3-yl)methyl)-1H-1,2,4-triazol-3-yl)methanol]	> 10000
CCCOc1ncc(Cc2cnc(N)nc2)cc1-c1ccc(F)c(F)c1 [Example 278, 5-((5-(3,4-Difluorophenyl)-6-propoxypyridin-3-yl)methyl)pyrimidin-2-amine]	< 100
CCOc1ncc(Cc2cnc(N)nc2)cc1-c1ccc(F)c(Cl)c1 [Example 279, 5-((5-(3-Chloro-4-fluorophenyl)-6-ethoxypyridin-3-yl)methyl)pyrimidin-2-amine]	< 100
COc1ncc(Cc2ccc(CC(N)=O)cc2)cc1-c1cccc(Cl)c1 [Example 280, 2-(4-((5-(3-Chlorophenyl)-6-methoxypyridin-3-yl)methyl)phenyl)acetamide]	< 100
COc1ncc(Cc2cnc(CC(N)=O)nc2)cc1-c1ccc(F)cc1 [Example 281, 2-(5-{[5-(4-Fluorophenyl)-6-methoxypyridin-3-yl]methyl}pyrimidin-2-yl)acetamide]	< 100
COc1ncc(Cc2cnc(C(N)=O)nc2)cc1-c1ccc(F)c(Cl)c1 [Example 282, 5-{[5-(3-Chloro-4-fluorophenyl)-6-methoxypyridin-3-yl]methyl}pyrimidine-2-carboxamide]	100 to 1000
COc1ncc(Cc2cnc(NCCO)nc2)cc1-c1ccc(F)cc1 [Example 283, 2-[(5-{[5-(4-Fluorophenyl)-6-methoxypyridin-3-yl]methyl}pyrimidin-2-yl)amino]ethan-1-ol]	100 to 1000
COc1ncc(Cc2cnc(C(C)(C)C#N)nc2)cc1-c1cccc(Cl)c1 [Example 284, 2-(5-((5-(3-Chlorophenyl)-6-methoxypyridin-3-yl)methyl)pyrimidin-2-yl)-2-methylpropanenitrile]	1000 to 10000
N#CCc1ncn(Cc2cnc(OC(F)F)c(-c3cccc(Cl)c3)c2)n1 [Example 285, 2-(1-{[5-(3-chlorophenyl)-6-(difluoromethoxy)pyridin-3-yl]methyl}-1H-1,2,4-triazol-3-yl)acetonitrile]	100 to 1000
CCOc1ccc(Cc2cnc(OC)c(-c3cccc(Cl)c3)c2)nc1 [Example 286, 3-(3-Chlorophenyl)-5((5-ethoxypyridin-2-yl)methyl)-2-methoxy pyridine]	> 10000
COc1ncc(Cc2cnc(N)cn2)cc1-c1cccc(Cl)c1 [Example 287, 5-((5-(3-Chlorophenyl)-6-methoxypyridin-3-yl)methyl)pyrazin-2-amine]	< 100
COc1ncc(Cc2cnc(N)cn2)cc1-c1ccc(F)c(Cl)c1 [Example 288, 5-((5-(3-Chloro-4-fluorophenyl)-6-methoxypyridin-3-yl)methyl)pyrazin-2-amine]	< 100
CCOc1cnc(Cc2cnc(OC)c(-c3cccc(Cl)c3)c2)cn1 [Example 289, 2-((5-(3-Chlorophenyl)-6-methoxypyridin-3-yl)methyl)-5-ethoxypyrazine]	100 to 1000

From patent US11279691B2, “Substituted pyridine and pyrazine compounds as PDE4 inhibitors” (Dart Neuroscience LLC, priority 2013, dated 2022)
